{
  "source": "patent US12384765B2",
  "about": "“Catecholamine prodrugs for use in the treatment of Parkinson's Disease” (H. Lundbeck A/S, priority 2019, dated 2025)",
  "key": {"[1]": {"details": "Liu et al., Bioorganic Med. Chem. (2008); cited from earlier work"}, "[2]": {"test": "Conversion of compounds in human plasma", "assay_type": "in vitro ADME", "procedure": "Frozen human plasma was thawed and then centrifuged at 3200×g for 5 min to remove debris. The pH value of the supernatant was then measured and adjusted to 7.4±0.1 by adding 1% phosphoric acid or 1 N sodium hydroxide. 2 μL of dosing solution (50 μM for test compounds and 100 μM for positive control (propantheline bromide)) was mixed with 98 μL of blank plasma to achieve 1 μM test compound and 2 μM positive control of final concentration. The mixture was incubated, and samples were withdrawn from the incubations at the pre-determined time points of 0, 0.5, 1, 2, 4 and 6 hr (in duplicate) at 37° C. in water bath. At each corresponding time point 10 μL inhibitor and 20 μL ascorbic acid and 2 μL formic acid (20%) are added, and then added 400 μL of “stop solution” (200 ng/mL tolbutamide plus 200 ng/mL labetalol in 50% ACN/MeOH) to precipitate protein. The substance was mixed thoroughly and thereafter Centrifugated at 4,000 rpm for 20 minutes. Then an aliquot of supernatant (50 μL) was transferred from each well to a sample plate and mixed with 100 μL ultrapure water. The plate was shaked at 800 rpm for about 10 minutes before submitting to LC-MS/MS analysis.\n(§1) Mass spectrometer (LC-MS/MS) Shimadzu LC 20-AD Shimadzu UHPLC API 4000. Analytical column ACQUITY UPLC® BEH Phenyl 1.7 μm 2.1×50 mm. Mobile phase A: 0.1% Formic Acid in Water. Mobile phase B: 0.1% Formic Acid in Acetonitrile. […] Flow rate 0.7 mL/min."}, "[3]": {"details": "WO 2010/097092; cited from earlier work"}, "[4]": {"test": "PK experiments in rats, plasma compound (I) after oral dosing", "assay_type": "in vivo, Han Wistar rats", "details": "for plasma concentrations of compound (I) after oral dosing (in words): oral dosing to Wistar rats", "procedure": "Plasma was placed on water-ice following collection. Final storage at approximately −70° C.\nMobile phase B: Acetonitrile. […] Flow rate 0.5 mL/min.\nThe rats had unrestricted access to the diet.\nMobile phase B: Acetonitrile+0.2% formic acid. […] Flow rate 0.3 mL/min.\nThe rats received a standard laboratory diet Teklad 2014C. The rats had unrestricted access to the diet."}, "[5]": {"details": "Liu et al.; cited from earlier work"}, "[6]": {"molecular_target": "T1, human 5-HT2B receptor (Homo sapiens (Human), UniProt P41595)", "T1 sequence (P41595 whole entry)": "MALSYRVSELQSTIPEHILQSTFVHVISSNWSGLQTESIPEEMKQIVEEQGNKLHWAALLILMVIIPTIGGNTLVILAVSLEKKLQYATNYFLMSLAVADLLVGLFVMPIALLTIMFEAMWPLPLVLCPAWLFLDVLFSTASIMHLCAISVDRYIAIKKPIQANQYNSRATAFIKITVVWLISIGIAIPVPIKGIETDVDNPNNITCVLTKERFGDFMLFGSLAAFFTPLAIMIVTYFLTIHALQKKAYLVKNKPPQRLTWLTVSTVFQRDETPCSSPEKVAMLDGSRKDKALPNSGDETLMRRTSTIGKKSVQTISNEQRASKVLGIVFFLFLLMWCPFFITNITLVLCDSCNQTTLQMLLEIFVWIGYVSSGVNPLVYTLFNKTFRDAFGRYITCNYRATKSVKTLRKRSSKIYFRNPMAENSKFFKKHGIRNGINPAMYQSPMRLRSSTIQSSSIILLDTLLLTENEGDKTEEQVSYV", "test": "5-HT2B agonist activity assay (IP1 production, HTRF)", "assay_type": "cell-based", "procedure": "Evaluation of the agonist activity of compounds (I), (Ia), (Ib), (Ic), (Ia-iab), compound (2), compound (9), compound (15), compound (27), A2, A3, and A7 at the human 5-HT2B receptor was performed by Eurofins/Cerep (France) measuring the compound effects on inositol monophosphate (IP1) production using the HTRF detection method. Briefly, the human 5-HT2B receptor was expressed in transfected CHO cells. The cells were suspended in a buffer containing 10 mM Hepes/NaOH (pH 7.4), 4.2 mM KCl, 146 mM NaCl, 1 mM CaCl2, 0.5 mM MgCl2, 5.5 mM glucose and 50 mM LiCl, then distributed in microplates at a density of 4100 cells/well and incubated for 30 minutes at 37° C. in the presence of buffer (basal control), test compound or reference agonist. For stimulated control measurement, separate assay wells contained 1 μM 5-HT. Following incubation, the cells were lysed and the fluorescence acceptor (fluorophen D2-labeled IP1) and fluorescence donor (anti-IP1 antibody labeled with europium cryptate) were added. After 60 minutes at room temperature, the fluorescence transfer was measured at lambda(Ex) 337 nm and lambda(Em) 620 and 665 nm using a microplate reader (Rubystar, BMG). The IP1 concentration was determined by dividing the signal measured at 665 nm by that measured at 620 nm (ratio). The results were expressed as a percent of the control response to 1 μM 5-HT. The standard reference agonist was 5-HT, which was tested in each experiment at several concentrations to generate a concentration-response curve from which its EC50 value is calculated as described above for dopamine functional assays."}, "[7]": {"tested_on": "human hepatocytes", "details": "WO 2010/097092; cited from earlier work"}, "[8]": {"tested_on": "rat hepatocytes", "details": "WO 2010/097092; cited from earlier work"}, "[9]": {"test": "In vitro dopaminergic activity (data not shown)"}, "[10]": {"tested_on": "male CD rats", "test": "Rat locomotor activity (hyperactivity) assay, open field", "assay_type": "in vivo", "details": "for end of locomotor effect post administration: recording until 415-minute time point", "procedure": "In total, 206 male CD rats (Charles River, Germany) weighing 200-250 grams (165-190 grams upon arrival) were used in the study. Animals were housed at a standard temperature (22±1° C.) and in a light-controlled environment (lights on from 7 am to 8 pm) with ad libitum access to food and water. The experiment described below was performed in accordance with the standard operating procedures of Charles River Discovery Research Services Finland Ltd. and in accordance with the national Animal Experiment Board of Finland (Elainkoelautakunta, ELLA) authority on animal testing.\nThe test device is a square Plexiglass-arena (measuring 40×40×40 cm), in which the movement paths of the rats are recorded by an activity monitor (Med. Associates Inc.). Before the test period is initiated, rats are habituated to their test cage for 60 minutes. Upon completion of habituation, animals were treated with either compound or vehicle and placed back into the open field apparatus. The main test parameter measured is ambulatory distance (recorded in 5 minute segments). Overall time of measurement after receiving initial treatment was 360 minutes. Total follow up period in the study was 420 minutes, including 60 minutes of habituation.\nBlood samples were taken and processed and analyzed as described under PK experiments in rats in Example 3."}, "[11]": {"molecular_target": "T1, human 5-HT2B receptor", "test": "5-HT2B binding assay", "details": "[125I](±)DOI, read-out: 5-HT2B binding affinity (% inhibition of control, specific binding)", "procedure": "Evaluation of the affinity of said compounds for the human 5-HT2B receptor was determined in a radioligand binding assay at Eurofins/Cerep (France). Membrane homogenates prepared from CHO cells expressing the human 5HT2B receptor were incubated for 60 min at room temperature with 0.2 nM [125I](±)DOI (1-(4-iodo-2,5-dimethoxyphenyl)propan-2-amine) in the absence or presence of the test compound in a buffer containing 50 mM Tris-HCl (pH 7.4), 5 mM MgCl2, 10 μM pargyline and 0.1% ascorbic acid. Nonspecific binding is determined in the presence of 1 μM (±)DOI. Following incubation, the samples were filtered rapidly under vacuum through glass fiber filters (GF/B, Packard) presoaked with 0.3% polyethyleneimine (PEI) and rinsed several times with ice-cold 50 mM Tris-HCl using a 96-sample cell harvester (Unifilter, Packard). The filters were dried and counted for radioactivity in a scintillation counter (Topcount, Packard) using a scintillation cocktail (Microscint 0, Packard). The results are expressed as a percent inhibition of the control radioligand specific binding. The standard reference compound was (±)DOI, which was tested in each experiment at several concentrations to obtain a competition curve from which its IC50 is calculated."}, "[12]": {"tested_on": "human hepatocytes", "test": "Conversion of compounds in human hepatocytes", "assay_type": "in vitro ADME", "details": "1 μM compound, 37° C.; nd: not detected", "procedure": "Incubations were conducted in 96-well plates at 1 μM compound concentration in duplicate. The hepatocyte cell concentration was 0.5×10^6 cells/mL used for final incubation at 37° C. in an incubator of 5% CO2 95% relative humidity. The medium control samples were included at 0 and 60 minutes in the absence of cells. The total organic concentration was 1% (DMSO 0.1%) in the final incubation. The controls, (7-ethoxycoumarin and 7-hydroxycoumarin) was incubated parallel at 3 μM. 2 μL of dosing solution (50 μM for test compounds and 100 μM for positive control) was mixed with 98 μL of 100 mM PBS to achieve 1 μM test compound and 2 μM positive control of final concentration. The mixture was incubated, and samples were withdrawn from the incubations at pre-determined time points of 0, 0.5, 1, 2, 4 and 6 hr (in duplicate) at 37° C. in water bath. To each sample, 10 μL inhibitor and 20 μL ascorbic acid and 2 μL formic acid (20%) were added followed by 400 μL of stop solution (200 ng/mL tolbutamide plus 200 ng/mL labetalol in 50% ACN/MeOH). The substance was mixed thoroughly and thereafter centrifuged at 4,000 rpm for 20 minutes. An aliquot of supernatant (50 μL) from each well were transferred to a sample plate and mixed with 100 μL ultrapure water. The plate was shaked at 800 rpm for about 10 minutes before submitting to LC-MS/MS analysis.\nas §1"}, "[13]": {"details": "in man after oral dosing; cited from earlier work"}, "[14]": {"details": "intravenous (IV), PD patients; cited from earlier work"}, "[15]": {"details": "(Id-ia) 10 to 300 μg/kg p.o., apomorphine 3 mg/kg s.c., pramipexole 0.3 mg/kg s.c."}, "[16]": {"details": "(Id-ia) 10 to 300 μg/kg p.o., apomorphine 3 mg/kg s.c."}},
  "note": "Entries after “also recorded” stand apart in the source; their conditions may differ.",
  "data": [
    {"smiles": "CCCN1CCC[C@@H]2Cc3c(ccc(O)c3O)C[C@H]21", "note": "[(I), (4aR,10aR)-1-Propyl-1,2,3,4,4a,5,10,10a-octahydro-benzo[g]quinoline-6,7-diol]", "values": [
      {"measurement": "oral bioavailability (in words)", "setting": "[1]", "result": "low oral bioavailability"},
      {"measurement": "half-life in the plasma assay", "setting": "[2]; human plasma", "result": "short half-life"},
      {"measurement": "in vivo pharmacology in animal models relevant for Parkinson's Disease", "setting": "[3]", "result": "effective"}
    ]},
    {"smiles": "CCCN1CCC[C@@H]2CC3=C(CCCC3=O)C[C@H]21", "note": "[(Ia), reference compound]", "values": [
      {"measurement": "plasma concentrations of compound (I) after oral dosing (in words)", "setting": "[4]", "result": "early and high peak plasma concentrations"},
      {"measurement": "conversion to compound (I) in rats", "setting": "[5]", "result": "converted to the active compound (I)"},
      {"measurement": "EC50", "setting": "[6]; IP1 production, transfected CHO cells", "result": "> 6", "unit": "µM"},
      {"measurement": "activity at 30 µM", "setting": "[6]; read-out: 5-HT2B agonist activity, percent of control response", "result": 58, "unit": "%"},
      {"measurement": "in vivo pharmacology in animal models relevant for Parkinson's Disease", "setting": "[3]", "result": "effective"}
    ]},
    {"smiles": "CCCN1CCC[C@@H]2Cc3c(ccc4c3OCO4)C[C@H]21", "note": "[(Ib), (6aR,10aR)-7-propyl-6,6a,7,8,9,10,10a,11-octahydro-[1,3]dioxolo[4′,5′:5,6]benzo[1,2-g]quinoline]", "values": [
      {"measurement": "conversion to compound (I) in human hepatocytes", "setting": "[7]", "result": "demonstrated"},
      {"measurement": "plasma concentrations of compound (I) after oral dosing (in words)", "setting": "[4]", "result": "early and high peak plasma concentrations"},
      {"measurement": "5-HT2B receptor agonism (in words)", "setting": "[6]", "result": "agonist"},
      {"measurement": "conversion to compound (I) in rat hepatocytes", "setting": "[8]", "result": "demonstrated"},
      {"measurement": "in vivo pharmacology in animal models relevant for Parkinson's Disease", "setting": "[3]", "result": "effective"}
    ]},
    {"smiles": "CCCN1CCC[C@@H]2Cc3c(ccc(O)c3O[C@@H]3O[C@H](C(=O)O)[C@@H](O)[C@H](O)[C@H]3O)C[C@H]21", "note": "[(Id-ia), (2S,3S,4S,5R,6S)-3,4,5-trihydroxy-6-(((4aR,10aR)-7-hydroxy-1-propyl-1,2,3,4,4a,5,10,10a-octahydrobenzo[g]quinolin-6-yl)oxy)tetrahydro-2H-pyran-2-carboxylic acid]", "values": [
      {"measurement": "in vitro dopaminergic activity", "setting": "[9]", "result": "no in vitro dopaminergic activity"},
      {"measurement": "Observed metabolite, In vivo PK study after oral dosing (rats)", "setting": "[4]", "result": "Compound (I)"},
      {"measurement": "effect on locomotor activity", "setting": "[10]; [15]", "result": "dopaminergic effect; also recorded: increases locomotor activity"},
      {"measurement": "start of locomotor effect post-administration", "setting": "[10]; [15]", "result": "~2", "unit": "h"},
      {"measurement": "end of locomotor effect post administration", "setting": "[10]; [16]", "result": "lasting until the end of recording"},
      {"measurement": "total distance travelled", "setting": "[10]; relative to vehicle, FIG. 4", "result": "significantly increased activity"}
    ]},
    {"smiles": "CCCN1CCC[C@@H]2Cc3c(ccc(O[C@@H]4O[C@H](C(=O)O)[C@@H](O)[C@H](O)[C@H]4O)c3O)C[C@H]21", "note": "[(Id-ib), (2S,3S,4S,5R,6S)-3,4,5-tri hydroxy-6-(((4aR,10aR)-6-hydroxy-1-propyl-1,2,3,4,4a,5,10,10a-octahydrobenzo[g]quinolin-7-yl)oxy)tetrahydro-2H-pyran-2-carboxylic acid]", "values": [
      {"measurement": "inhibition at 10 µM", "setting": "[11]", "result": -39, "unit": "%"},
      {"measurement": "Observed metabolite, Incubation in human hepatocytes", "setting": "[12]", "result": "Compound (I)"},
      {"measurement": "Observed metabolite, In vivo PK study after oral dosing (rats)", "setting": "[4]", "result": "Compound (I)"},
      {"measurement": "Observed metabolite, Incubation in human plasma", "setting": "[2]; 1 μM test compound, 37° C., 0-6 hr, nd: not detected", "result": "Compound (I)"}
    ]},
    {"smiles": "CCCc1cc2c(s1)CN[C@@H]1CCc3cc(OC(C)=O)c(OC(C)=O)cc3[C@@H]21", "note": "[Adrogolide, adrogolide]", "values": [
      {"measurement": "oral bioavailability", "setting": "[13]", "result": "~4", "unit": "%"},
      {"measurement": "antiparkinson efficacy", "setting": "[14]", "result": "comparable to that of L-DOPA"}
    ]},
    {"smiles": "CN1CCc2cccc3c2[C@H]1Cc1ccc(O)c(O)c1-3", "note": "[apomorphine, reference compound]", "values": [
      {"measurement": "end of locomotor effect post administration", "setting": "[10]; [16]", "result": 1.5, "unit": "h"}
    ]}
  ]
}
